Experimental findings from PubChem BioAssay (NCI) are described below.

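Growth conditions: 96-well plates. Treatment: test compound, 48 hours, 5 concentrations. Analysis: linear interpolation between bracketing concentrations; unreached endpoints set to highest concentration. GI50: concentration for 50% inhibition of growth. Definition used: TGI = concentration required for complete inhibition of growth.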

Test systems include K-562 leukemia; UACC-257 melanoma; BT-549 breast; RXF 393 renal; EKVX NSCLC; LOX IMVI melanoma; HOP-62 NSCLC; DU-145 prostate; HCC-2998 colon; A498 renal.
What all share (assay): growth of human tumour cells (NCI), 48 h

Consider `C[C@@H]1CN(Cc2ccc(/C=C/c3n[nH]c4ccc5nc(-c6cn[nH]c6C(F)(F)F)c6c(c5c34)CCCC6)cc2)C[C@H](C)O1`, for which the GI50 was 2.81 µM in the assay with K-562 leukemia; 13.3 µM with UACC-257 melanoma; 3.09 µM in the assay with BT-549 breast; 1.85 µM in the assay with RXF 393 renal; 3.7 µM in the assay with EKVX NSCLC; 2.33 µM with LOX IMVI melanoma. For the same compound, the GI50 was 4.6 µM with HOP-62 NSCLC, 4.53 µM in the assay with DU-145 prostate, 2.57 µM in the assay with HCC-2998 colon and 1.21 µM in the assay on A498 renal. Moreover, the TGI in the assay on K-562 leukemia was determined as 24.7 µM; in the assay with UACC-257 melanoma it was 30.9 µM; in the assay on BT-549 breast, 14.8 µM; with RXF 393 renal, 5.79 µM; in the assay with EKVX NSCLC, 17.3 µM; in the assay on LOX IMVI melanoma, 10.8 µM. Further, the TGI is 30.8 µM in the assay with HOP-62 NSCLC, 16.9 µM in the assay on DU-145 prostate, 10.5 µM in the assay with HCC-2998 colon and 6.51 µM in the assay with A498 renal.

Consider `Nc1c(C(=O)Nc2cccc3ccccc23)sc2nc3c(cc12)CCCC3`, for which the GI50 with K-562 leukemia is 0.349 µM; in the assay with UACC-257 melanoma, 40.5 µM; in the assay on BT-549 breast it was 1.4 µM; with RXF 393 renal, 2.77 µM; in the assay with EKVX NSCLC, 4.47 µM; in the assay on LOX IMVI melanoma it was 1.75 µM. Moreover, the GI50 in the assay with HOP-62 NSCLC was 2.16 µM; in the assay on DU-145 prostate, 2.62 µM; in the assay on HCC-2998 colon it was 4.17 µM; in the assay with A498 renal, 0.366 µM. Besides, the TGI in the assay with K-562 leukemia is above 100 µM; with UACC-257 melanoma it was above 100 µM; with BT-549 breast, 17.2 µM; with RXF 393 renal, above 100 µM; with EKVX NSCLC, above 100 µM; with LOX IMVI melanoma, above 100 µM. The TGI was above 100 µM with HOP-62 NSCLC, above 100 µM in the assay with DU-145 prostate, above 100 µM in the assay on HCC-2998 colon and 7.78 µM in the assay on A498 renal.

Take `COc1cc(Nc2ncc3c(n2)-c2ccc(Cl)cc2C(c2c(F)cccc2OC)=NC3)ccc1C(=O)O`: the GI50 with K-562 leukemia was 5.24 µM; with UACC-257 melanoma, 18.2 µM; with BT-549 breast it was 5.88 µM; in the assay on RXF 393 renal, 1.59 µM; in the assay on EKVX NSCLC it was 13.1 µM; in the assay with LOX IMVI melanoma it was 0.91 µM. For the same compound, the GI50 in the assay with HOP-62 NSCLC is 5.08 µM; in the assay on DU-145 prostate, 17.6 µM; in the assay with HCC-2998 colon, 19.2 µM; in the assay on A498 renal it was 0.211 µM. Moreover, the TGI in the assay with K-562 leukemia was above 100 µM; in the assay with UACC-257 melanoma, above 92.5 µM; with BT-549 breast, above 81.1 µM; in the assay on RXF 393 renal, 13.1 µM; with EKVX NSCLC, 69.1 µM; with LOX IMVI melanoma, 21.3 µM. For the same compound, the TGI in the assay on HOP-62 NSCLC was 58.5 µM; in the assay on DU-145 prostate it was above 87.5 µM; in the assay on HCC-2998 colon it was above 100 µM; in the assay on A498 renal it was 2.55 µM.

`O=C1OCC2=C1C(c1cccc(F)c1)c1cc3c(cc1N2CCO)OCCO3` (stereo not given): the GI50 with K-562 leukemia is 0.122 µM; in the assay with UACC-257 melanoma, above 20 µM; in the assay with BT-549 breast it was 0.417 µM; with RXF 393 renal, 0.141 µM; in the assay on EKVX NSCLC, 0.306 µM; in the assay with LOX IMVI melanoma it was 0.265 µM. The GI50 with HOP-62 NSCLC was 0.31 µM; in the assay on DU-145 prostate, 0.22 µM; in the assay on HCC-2998 colon it was 0.768 µM; with A498 renal, 0.111 µM. Further, the TGI in the assay on K-562 leukemia was above 50 µM; with UACC-257 melanoma, above 50 µM; with BT-549 breast, 11.4 µM; with RXF 393 renal, above 50 µM; in the assay with EKVX NSCLC, above 50 µM; in the assay on LOX IMVI melanoma it was above 50 µM. Besides, the TGI with HOP-62 NSCLC was above 50 µM; in the assay on DU-145 prostate it was above 50 µM; in the assay with HCC-2998 colon, above 50 µM; in the assay on A498 renal, 0.438 µM.

As for `COc1ccc(C(=O)Nc2ncc(Cc3ccc(F)cc3)s2)cc1`, the GI50 was 0.0377 µM in the assay with K-562 leukemia; 7.75 µM in the assay on UACC-257 melanoma; 0.642 µM in the assay on BT-549 breast; 0.0666 µM in the assay on RXF 393 renal; 0.383 µM with EKVX NSCLC; 0.0673 µM in the assay on LOX IMVI melanoma. Further, the GI50 in the assay with HOP-62 NSCLC is 0.148 µM; with DU-145 prostate, 0.138 µM; with HCC-2998 colon it was 0.163 µM; in the assay on A498 renal, 0.0204 µM. Further, the TGI in the assay with K-562 leukemia is above 100 µM; in the assay on UACC-257 melanoma it was above 100 µM; with BT-549 breast, above 100 µM; in the assay with RXF 393 renal, 3.18 µM; in the assay on EKVX NSCLC it was above 100 µM; with LOX IMVI melanoma it was above 100 µM. Besides, the TGI in the assay with HOP-62 NSCLC is above 56.5 µM; with DU-145 prostate, above 100 µM; in the assay on HCC-2998 colon it was 2.49 µM; with A498 renal, 0.0898 µM.

For `COC(=O)C1CC2(c3ccc(C)cc3)C(c3ccc(C)cc3)=C(c3ccc(C)cc3)C1(c1ccc(C)cc1)S2=O` (stereo not given), the GI50 in the assay with K-562 leukemia is above 100 µM; in the assay on UACC-257 melanoma it was above 100 µM; in the assay on BT-549 breast it was above 100 µM; with RXF 393 renal it was 90.2 µM; with EKVX NSCLC, above 100 µM; in the assay with LOX IMVI melanoma, above 100 µM. Also, the GI50 in the assay with HOP-62 NSCLC is 34.8 µM; in the assay with DU-145 prostate, above 100 µM; in the assay on HCC-2998 colon, above 100 µM; in the assay with A498 renal it was 4.88 µM. Besides, the TGI in the assay with K-562 leukemia, in the assay on UACC-257 melanoma, in the assay on BT-549 breast, in the assay on RXF 393 renal, with EKVX NSCLC and in the assay with LOX IMVI melanoma was above 100 µM each time. Moreover, the TGI is above 100 µM in the assay on HOP-62 NSCLC, above 100 µM with DU-145 prostate, above 100 µM in the assay with HCC-2998 colon and 50.5 µM in the assay with A498 renal.

In the case of `C/C1=C\CC[C@@](C)(O)[C@H]2C[C@H](CC/C(C)=C/CC1)C1(CC1)C(=O)O2`, the GI50 in the assay on K-562 leukemia is 13.2 µM; with UACC-257 melanoma, 19.4 µM; with BT-549 breast, 23.7 µM; in the assay with RXF 393 renal it was 18.4 µM; in the assay with EKVX NSCLC, 37 µM; in the assay with LOX IMVI melanoma, 13.6 µM. The GI50 with HOP-62 NSCLC was 18.5 µM; in the assay on DU-145 prostate it was 16.6 µM; in the assay on HCC-2998 colon, 18 µM; with A498 renal it was 20.1 µM. The TGI with K-562 leukemia is 29 µM; with UACC-257 melanoma it was 67.2 µM; with BT-549 breast, 55.7 µM; in the assay on RXF 393 renal, 42.8 µM; in the assay on EKVX NSCLC it was above 100 µM; with LOX IMVI melanoma, 28.6 µM. Also, the TGI worked out at 35.4 µM in the assay on HOP-62 NSCLC, 31.2 µM with DU-145 prostate, 35.2 µM with HCC-2998 colon and 66.2 µM in the assay with A498 renal.

Take `N#Cc1cc2cc3c4c(c2oc1=O)CCCN4CCC3`: the TGI in the assay with K-562 leukemia, with UACC-257 melanoma, in the assay on BT-549 breast, with RXF 393 renal, with EKVX NSCLC and with LOX IMVI melanoma was above 100 µM in each case. Besides, the TGI in the assay with HOP-62 NSCLC, with DU-145 prostate, with HCC-2998 colon and in the assay on A498 renal was above 100 µM throughout.
